Measurements reported in ChEMBL document CHEMBL1201862, “PubChem BioAssay data set” (2004).
Each block holds one compound with its values, some of them ahead of it. Calls of active or inactive are those of the source.

Experiments:
[1] = target: T1, Sentrin-specific protease 8 (Homo sapiens, UniProt Q96LD8); assay: inhibition of human SENP8 cleavage activity – biochemical, luminescence, SAR follow-up (AID 504501); format: functional
T1 sequence (Q96LD8 whole entry): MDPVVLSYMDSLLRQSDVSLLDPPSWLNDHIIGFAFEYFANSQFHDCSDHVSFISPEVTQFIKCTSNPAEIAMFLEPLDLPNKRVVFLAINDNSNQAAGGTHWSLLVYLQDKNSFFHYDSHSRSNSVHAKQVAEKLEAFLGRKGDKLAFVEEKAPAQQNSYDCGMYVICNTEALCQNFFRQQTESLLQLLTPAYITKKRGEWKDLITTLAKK

Caspase-3 = target: T2, Caspase-3 (Homo sapiens, UniProt P42574); assay: SAR Analysis of small molecule inhibitors of Sentrin-specific proteases (SENPs) using a Caspase-3 Selectivity assay. [Related pubchem assays (depositor defined):AID2540, AID2599, AID434973, AID489001]; format: functional
T2 sequence (P42574 whole entry): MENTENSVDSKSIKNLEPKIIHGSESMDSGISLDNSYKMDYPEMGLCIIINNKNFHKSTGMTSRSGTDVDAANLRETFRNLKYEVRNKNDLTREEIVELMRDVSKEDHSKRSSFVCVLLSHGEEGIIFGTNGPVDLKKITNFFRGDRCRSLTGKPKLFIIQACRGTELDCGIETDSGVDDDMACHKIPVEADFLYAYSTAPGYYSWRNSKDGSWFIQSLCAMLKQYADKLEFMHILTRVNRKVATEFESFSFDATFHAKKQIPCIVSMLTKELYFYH

[2] = target: T3, Sentrin-specific protease 6 (Homo sapiens, UniProt Q9GZR1); assay: SAR Analysis of small molecule inhibitors of Sentrin-specific protease 6 (SENP6) using a Luminescent assay. [Related pubchem assays (depositor defined):AID2582, AID2599]; format: functional
T3 sequence (Q9GZR1 whole entry): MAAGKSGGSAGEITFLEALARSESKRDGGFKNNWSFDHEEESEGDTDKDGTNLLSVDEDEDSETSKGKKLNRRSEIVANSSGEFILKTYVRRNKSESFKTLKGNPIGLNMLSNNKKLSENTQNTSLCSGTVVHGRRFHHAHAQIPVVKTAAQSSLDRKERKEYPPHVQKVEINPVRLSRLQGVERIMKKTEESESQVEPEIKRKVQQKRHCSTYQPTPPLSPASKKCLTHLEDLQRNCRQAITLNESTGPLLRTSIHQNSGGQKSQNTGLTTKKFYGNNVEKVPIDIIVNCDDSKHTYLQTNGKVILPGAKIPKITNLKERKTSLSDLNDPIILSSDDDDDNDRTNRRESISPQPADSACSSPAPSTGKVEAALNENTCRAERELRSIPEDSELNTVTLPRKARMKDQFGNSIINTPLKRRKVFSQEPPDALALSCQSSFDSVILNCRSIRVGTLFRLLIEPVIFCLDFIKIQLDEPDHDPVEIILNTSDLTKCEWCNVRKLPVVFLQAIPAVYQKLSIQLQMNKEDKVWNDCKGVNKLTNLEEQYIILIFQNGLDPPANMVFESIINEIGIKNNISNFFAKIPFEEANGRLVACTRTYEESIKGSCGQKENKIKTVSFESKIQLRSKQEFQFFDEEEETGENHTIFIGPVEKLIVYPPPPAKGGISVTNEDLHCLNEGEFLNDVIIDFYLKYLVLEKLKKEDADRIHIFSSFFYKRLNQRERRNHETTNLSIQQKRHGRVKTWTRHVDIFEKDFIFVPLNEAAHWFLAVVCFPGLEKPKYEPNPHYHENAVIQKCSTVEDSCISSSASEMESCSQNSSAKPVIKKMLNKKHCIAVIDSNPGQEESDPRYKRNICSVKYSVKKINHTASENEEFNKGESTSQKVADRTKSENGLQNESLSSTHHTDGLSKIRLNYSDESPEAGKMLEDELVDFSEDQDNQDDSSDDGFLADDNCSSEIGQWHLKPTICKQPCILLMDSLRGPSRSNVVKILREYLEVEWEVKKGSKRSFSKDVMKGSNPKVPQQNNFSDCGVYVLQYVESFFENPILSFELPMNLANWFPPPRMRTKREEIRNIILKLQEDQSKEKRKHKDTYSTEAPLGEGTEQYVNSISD

[3] = target: T4, Sentrin-specific protease 7 (Homo sapiens, UniProt Q9BQF6); assay: inhibition of human SENP7 cleavage activity – biochemical, luminescence, SAR follow-up (AID 504497); format: functional
T4 sequence (Q9BQF6 whole entry): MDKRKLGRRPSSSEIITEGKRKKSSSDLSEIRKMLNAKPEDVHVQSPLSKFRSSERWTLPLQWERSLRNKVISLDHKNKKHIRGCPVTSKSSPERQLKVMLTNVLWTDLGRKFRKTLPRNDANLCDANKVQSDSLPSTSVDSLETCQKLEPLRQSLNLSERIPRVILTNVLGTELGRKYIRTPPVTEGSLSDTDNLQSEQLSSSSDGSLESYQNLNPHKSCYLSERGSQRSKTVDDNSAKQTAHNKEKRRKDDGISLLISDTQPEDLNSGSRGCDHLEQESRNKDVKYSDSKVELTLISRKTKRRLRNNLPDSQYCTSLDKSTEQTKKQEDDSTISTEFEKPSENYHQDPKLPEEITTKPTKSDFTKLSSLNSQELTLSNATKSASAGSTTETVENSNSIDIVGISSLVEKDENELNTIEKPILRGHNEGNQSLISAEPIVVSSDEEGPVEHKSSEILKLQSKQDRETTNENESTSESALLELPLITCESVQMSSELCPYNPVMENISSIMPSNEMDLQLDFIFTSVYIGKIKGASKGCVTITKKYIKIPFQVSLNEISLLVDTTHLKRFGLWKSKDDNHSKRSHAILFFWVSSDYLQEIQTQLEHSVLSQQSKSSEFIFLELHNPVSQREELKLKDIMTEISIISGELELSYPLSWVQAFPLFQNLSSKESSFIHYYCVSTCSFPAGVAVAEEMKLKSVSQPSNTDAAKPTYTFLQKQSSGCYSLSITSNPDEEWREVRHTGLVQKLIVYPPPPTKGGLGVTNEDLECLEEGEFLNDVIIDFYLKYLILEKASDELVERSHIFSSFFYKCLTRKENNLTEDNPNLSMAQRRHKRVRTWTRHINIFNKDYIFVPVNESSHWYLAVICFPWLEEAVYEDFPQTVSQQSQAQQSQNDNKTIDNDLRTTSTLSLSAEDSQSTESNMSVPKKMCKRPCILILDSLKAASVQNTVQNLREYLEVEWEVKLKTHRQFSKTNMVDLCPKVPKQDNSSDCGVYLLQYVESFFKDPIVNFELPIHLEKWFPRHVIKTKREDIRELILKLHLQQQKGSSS

Insulin-degrading enzyme [4] = target: T5, Insulin-degrading enzyme (Homo sapiens, UniProt P14735); assay: recombinant IDE activation, cell-free – biochemical, fluorescence polarization, counter-screen for IDE activator project, dose response (AID 588681)
T5 sequence (P14735 whole entry): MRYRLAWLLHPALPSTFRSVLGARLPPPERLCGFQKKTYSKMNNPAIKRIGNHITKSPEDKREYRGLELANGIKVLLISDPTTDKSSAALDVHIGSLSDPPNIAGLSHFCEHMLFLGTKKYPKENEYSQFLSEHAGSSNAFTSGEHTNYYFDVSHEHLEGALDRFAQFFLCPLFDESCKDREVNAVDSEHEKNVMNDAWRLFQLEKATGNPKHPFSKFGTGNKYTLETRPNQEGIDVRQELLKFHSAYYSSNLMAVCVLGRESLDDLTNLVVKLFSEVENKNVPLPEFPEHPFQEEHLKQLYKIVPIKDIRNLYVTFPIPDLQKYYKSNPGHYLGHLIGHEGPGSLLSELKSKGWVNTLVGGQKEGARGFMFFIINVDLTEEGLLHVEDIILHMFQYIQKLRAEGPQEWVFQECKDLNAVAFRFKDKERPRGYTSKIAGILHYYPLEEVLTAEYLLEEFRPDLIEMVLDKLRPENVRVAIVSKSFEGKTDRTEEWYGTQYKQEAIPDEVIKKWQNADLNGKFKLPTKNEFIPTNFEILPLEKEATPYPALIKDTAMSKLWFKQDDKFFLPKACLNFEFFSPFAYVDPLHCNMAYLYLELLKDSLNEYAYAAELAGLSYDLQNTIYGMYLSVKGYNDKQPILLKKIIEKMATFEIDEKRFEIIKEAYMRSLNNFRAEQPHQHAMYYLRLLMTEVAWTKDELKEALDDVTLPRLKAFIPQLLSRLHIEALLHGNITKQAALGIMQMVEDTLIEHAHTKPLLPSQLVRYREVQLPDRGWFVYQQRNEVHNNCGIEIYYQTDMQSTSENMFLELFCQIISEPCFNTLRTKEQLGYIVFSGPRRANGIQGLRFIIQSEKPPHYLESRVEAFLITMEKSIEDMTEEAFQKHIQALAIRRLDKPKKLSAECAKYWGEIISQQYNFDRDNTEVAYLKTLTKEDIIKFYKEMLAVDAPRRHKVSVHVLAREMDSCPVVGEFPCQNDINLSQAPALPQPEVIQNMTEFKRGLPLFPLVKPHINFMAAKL

Insulin-degrading enzyme [5] = target: T5, Insulin-degrading enzyme; assay: cellular IDE activation of Abeta substrate cleavage – fluorescence polarization, HEK cells, dose response (AID 588439); format: functional, cell-based
HEK293 [6] = assay: membrane integrity loss in HEK cells – cell-based, fluorescence, cytotoxicity control for IDE activator project, dose response (AID 588440); format: functional; conditions: Homo sapiens;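 also: cytotoxicity by LDH release measuring loss of membrane integrity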
HEK293 [7] = assay: optical interference in Abeta FP readout, dose response, artefact control for IDE activator project, biochemical, fluorescence polarization (AID 588442); format: functional, cell-based; conditions: Homo sapiens
[8] = target: T1, Sentrin-specific protease 8; format: functional
[9] = target: T1, Sentrin-specific protease 8; format: functional; remark: listed apart in the source
HEK293 [10] = assay: inhibition of NOD1-driven NF-kB reporter – cell-based, luminescence, uHTS, primary screen (AID 1578); format: functional; conditions: Homo sapiens
HEK293 [11] = assay: cells; format: functional, cell-based; conditions: Homo sapiens
HEK293 [12] = assay: cells; format: functional, cell-based; conditions: Homo sapiens; remark: listed apart in the source
[13] = target: Nucleotide-binding oligomerization domain-containing protein 2 (Homo sapiens, UniProt Q9HC29); assay: inhibition of NOD2-driven NF-kB reporter – cell-based, luminescence, uHTS, HEK293 (AID 1566); format: functional
Nucleotide-binding oligomerization domain-containing protein 2, sequence (Q9HC29 whole entry, the tested form may be a part): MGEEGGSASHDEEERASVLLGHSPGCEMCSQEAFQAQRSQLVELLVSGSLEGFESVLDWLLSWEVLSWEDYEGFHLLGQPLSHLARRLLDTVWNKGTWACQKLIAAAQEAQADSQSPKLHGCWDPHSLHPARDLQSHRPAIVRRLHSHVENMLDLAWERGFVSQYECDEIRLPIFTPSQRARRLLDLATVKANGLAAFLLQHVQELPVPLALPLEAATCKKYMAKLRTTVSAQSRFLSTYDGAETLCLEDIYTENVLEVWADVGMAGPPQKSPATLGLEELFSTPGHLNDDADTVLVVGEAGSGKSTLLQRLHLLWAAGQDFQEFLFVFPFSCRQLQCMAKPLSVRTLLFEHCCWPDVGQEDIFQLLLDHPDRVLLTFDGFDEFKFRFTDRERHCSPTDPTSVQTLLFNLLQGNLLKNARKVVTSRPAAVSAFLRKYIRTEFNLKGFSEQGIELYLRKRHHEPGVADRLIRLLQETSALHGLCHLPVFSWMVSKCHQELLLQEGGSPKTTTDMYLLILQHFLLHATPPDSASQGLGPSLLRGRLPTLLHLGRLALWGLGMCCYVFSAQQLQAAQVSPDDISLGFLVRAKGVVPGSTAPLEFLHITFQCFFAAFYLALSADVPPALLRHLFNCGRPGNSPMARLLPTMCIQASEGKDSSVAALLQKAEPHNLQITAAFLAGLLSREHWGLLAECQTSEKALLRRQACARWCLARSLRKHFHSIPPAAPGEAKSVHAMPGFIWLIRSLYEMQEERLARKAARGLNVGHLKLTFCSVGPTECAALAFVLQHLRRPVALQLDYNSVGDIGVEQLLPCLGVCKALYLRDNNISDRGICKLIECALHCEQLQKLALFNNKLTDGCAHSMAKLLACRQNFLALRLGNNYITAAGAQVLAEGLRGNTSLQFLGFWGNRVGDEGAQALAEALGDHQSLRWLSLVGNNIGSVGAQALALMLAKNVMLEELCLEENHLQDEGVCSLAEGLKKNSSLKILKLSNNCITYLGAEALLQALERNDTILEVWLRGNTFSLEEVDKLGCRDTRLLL

HEK293 [14] = assay: NOD2 signaling inhibitors in MDP-stimulated cells, cell-based, uHTS, luminescence (AID 2001); format: functional; conditions: Homo sapiens
HEK293 [15] = assay: cells; format: functional, cell-based; conditions: Homo sapiens; remark: listed apart in the source
[16] = target: T6, Probable nicotinate-nucleotide adenylyltransferase (Staphylococcus aureus (strain N315), UniProt P65502); format: functional, Staphylococcus aureus subsp. aureus N315;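 as to IC50 Mean: confirmatory dose-response retesting of NadD inhibitor hits first found in an ultra-high-throughput screen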
[17] = target: T6, Probable nicotinate-nucleotide adenylyltransferase; format: functional, Staphylococcus aureus subsp. aureus N315; conditions: read-out: IC50_Mean
[18] = target: Hepatocyte nuclear factor 4-alpha (Homo sapiens, UniProt P41235); format: functional, cell-based;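 also: biochemical luminescence-based dose-response counterscreen measuring inhibition of HNF4 dimerization, run alongside a screen for blockers of ABHD5–perilipin-5 interaction; split luciferase complementation of HNF4 fusion proteins in cell lysate measuring dimerization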
Hepatocyte nuclear factor 4-alpha, sequence (P41235 whole entry, the tested form may be a part): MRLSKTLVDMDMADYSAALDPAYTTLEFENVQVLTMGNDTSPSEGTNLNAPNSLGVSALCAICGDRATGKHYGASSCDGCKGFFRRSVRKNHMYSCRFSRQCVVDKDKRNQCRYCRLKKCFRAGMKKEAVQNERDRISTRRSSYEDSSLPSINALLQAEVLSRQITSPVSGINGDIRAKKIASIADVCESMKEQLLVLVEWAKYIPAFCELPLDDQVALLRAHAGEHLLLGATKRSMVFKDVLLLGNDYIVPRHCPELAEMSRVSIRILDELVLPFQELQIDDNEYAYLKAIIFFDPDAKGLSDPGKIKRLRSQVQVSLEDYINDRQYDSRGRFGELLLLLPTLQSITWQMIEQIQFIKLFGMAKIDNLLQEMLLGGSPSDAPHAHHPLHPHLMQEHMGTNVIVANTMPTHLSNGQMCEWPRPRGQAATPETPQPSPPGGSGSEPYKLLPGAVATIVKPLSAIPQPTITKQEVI

SMILES: CC(OC(=O)c1ccc(Cl)nc1)C(=O)NC1(C#N)CCCCC1 (stereo unspecified)
EC50 (Insulin-degrading enzyme [4]): > 54.7 µM (inactive)
EC50 (Insulin-degrading enzyme [5]): > 54.7 µM (inactive)
IC50 (HEK293 [6]): > 89.3 µM (inactive)
EC50 (HEK293 [7]): > 54.7 µM (inactive)

SMILES: COc1ccccc1NC(=O)c1cn(C)c(=O)c2cc(OC)c(OC)cc12
IC50 [8]: 48.1 µM (active)
IC50 [9]: 10.2 µM (active)

SMILES: Cc1ccc(NS(=O)(=O)c2cc(NC(=O)c3ccc4c(c3)NC(=O)CS4)ccc2Cl)c(C)c1
EC50 (HEK293 [10]): 6.38 µM (active)
IC50 (HEK293 [11]): 6.3 µM (active)
IC50 (HEK293 [12]): 11.5 µM (active)
EC50 [13]: 14.3 µM (active)
IC50 (HEK293 [14]): 7.17 µM (inactive)
IC50 (HEK293 [15]): > 20 µM (inactive)
IC50 [16]: 19.5 µM (active)
IC50 [17]: 48.8 µM (active)

SMILES: Cc1ccsc1C(=O)Nc1nc2ccc(Cl)cc2s1
IC50 [1]: 0.62 µM (active)
IC50 (Caspase-3): 0.48 µM (active)
IC50 [2]: 0.66 µM (active)
IC50 [3]: 0.75 µM (active)

SMILES: O=C(c1cnn(C(=O)c2ccco2)c1)c1cc(F)ccc1O
EC50 (Insulin-degrading enzyme [4]): > 54.7 µM (inactive)
EC50 (Insulin-degrading enzyme [5]): > 54.7 µM (inactive)
IC50 (HEK293 [6]): > 89.1 µM (inactive)
EC50 (HEK293 [7]): > 54.7 µM (inactive)

SMILES: O=C1CC(c2ccc(Cl)cc2)Oc2ccc(Cl)cc21 (stereo unspecified)
IC50 [18]: 6.14 µM (active)

The next lines start with results.

IC50 (Caspase-3): > 99 µM (inactive)
IC50 [2]: > 99 µM (inactive)
IC50 [3]: > 99 µM (inactive)
SMILES: C(=C\c1nc(-c2ccc(N3CCOCC3)cc2)no1)/c1ccccc1
IC50 [1]: > 99 µM (inactive)

IC50 (Caspase-3): > 99 µM (inactive)
IC50 [2]: 32.4 µM (active)
IC50 [3]: 63 µM (active)
SMILES: COc1ccc(C2C(C#N)=C(N)Oc3c2c(C)nn3-c2ccccc2)cc1 (stereo unspecified)
IC50 [1]: > 99 µM (inactive)
